ChEMBL document CHEMBL1133752, “Synthesis and antiviral evaluation of trisubstituted indole N-nucleosides as analogues of 2,5,6-trichloro-1-(beta-D-ribofuranosyl)benzimidazole (TCRB)” (J Med Chem, 2000)

Key:
[1] = ELISA assay was performed using BSC-1 cells to determine activity against HSV-1; type: functional, cell-based, Cercopithecidae
[2] = Inhibition of KB cell growth was determined.; type: functional, cell-based; settings: Homo sapiens
[3] = tested on: HFF; assay: Visual cytotoxicity was scored on HFF cells at time of HCMV plaque enumeration; type: functional, cell-based; settings: Homo sapiens
[4] = tested on: HFF; assay: Antiviral activity against HCMV was determined by plaque reduction assay using HFF cells; type: functional, cell-based; settings: Homo sapiens
[5] = tested on: HFF; assay: Antiviral activity against HCMV was determined by yield reduction assay using HFF cells; type: functional; settings: Homo sapiens

Question: Which IC50 [1] does the source give for `Clc1cc2cc(Br)[nH]c2cc1Cl` here?
Answer: The IC50 was 70 µM.

Question: What about the IC50 [2] of the same compound?
Answer: The IC50 was 70 µM.

Question: What about the IC50 [3] of the same compound?
Answer: The IC50 was 32 µM.

Question: What about the IC50 [4] of the same compound?
Answer: The IC50 was 14 µM.

Question: With `Nc1nc2c(ncn2COC(CO)CO)c(=O)[nH]1` [GANCICLOVIR] as the compound, how does the IC50 [1] read?
Answer: The IC50 was 3.5 µM.

Question: And the IC50 [2]?
Answer: The IC50 was greater than 100 µM.

Question: What about the IC50 [3] of the same compound?
Answer: The IC50 was greater than 100 µM.

Question: And the IC90 [5]?
Answer: The IC90 was 1.6 µM.

Question: With `OC[C@H]1OC(n2c(Br)cc3cc(Cl)c(Cl)cc32)[C@H](O)[C@@H]1O` (some centres not stated) as the compound, how does the IC50 [1] read?
Answer: The IC50 was greater than 100 µM.

Question: What about the IC50 [2] of the same compound?
Answer: The IC50 was greater than 100 µM.

Question: What about the IC50 [3] of the same compound?
Answer: Its IC50 is 100 µM.

Question: And the IC50 [4]?
Answer: The IC50 was 18 µM.

Question: What about the IC90 [5] of the same compound?
Answer: Its IC90 is 42 µM.

Question: Which results are given for `OC[C@H]1OC(n2c(Cl)cc3cc(Cl)c(Cl)cc32)[C@H](O)[C@@H]1O` (some centres not stated)?
Answer: IC50 [1]: > 100 µM; IC50 [2]: > 100 µM; IC50 [3]: > 100 µM; IC50 [4]: 42 µM; IC90 [5]: 50 µM

Question: For `OC[C@H]1O[C@@H](n2c(Cl)nc3cc(Cl)c(Cl)cc32)[C@H](O)[C@@H]1O`, which IC50 [1] is on record?
Answer: Its IC50 is 102 µM.

Question: What about the IC50 [2] of the same compound?
Answer: The IC50 was 210 µM.

Question: And the IC90 [5]?
Answer: Its IC90 is 1.4 µM.

Question: Which IC50 [1] does the source give for `OC[C@H]1O[C@@H](n2c(SCc3ccccc3)cc3cc(Cl)c(Cl)cc32)CC1O` (some centres not stated) here?
Answer: Its IC50 is 40 µM.

Question: What about the IC50 [2] of the same compound?
Answer: Its IC50 is 60 µM.

Question: And the IC50 [3]?
Answer: Its IC50 is 32 µM.

Question: And the IC50 [4]?
Answer: The IC50 was 32 µM.

Question: Which results are given for `O=C(O)P(=O)(O)O` [FOSCARNET]?
Answer: IC50 [3]: > 100 µM; IC50 [4]: 39 µM
